Data reported in paper PMC10861881 (Proceedings of the National Academy of Sciences of the …, 2024).
≈ marks a conversion by molar mass, not a printed value.

Tests used:
[1] = Plasma protein binding, mouse; type: in vitro ADME; conditions: pooled plasma
[2] = Plasma protein binding, human; type: in vitro ADME; conditions: pooled plasma
[3] = Stability in plasma and blood; type: in vitro ADME; conditions: plasma of all species, 5 μM, 37 °C, 18 h
[4] = Hepatocyte intrinsic clearance, mouse; type: in vitro ADME; conditions: hepatocytes
[5] = tested on: MEK5; conditions: test concentration 500 nmol/L; cited from earlier work
[6] = PK study IV/PO, cynomolgus monkey; type: in vivo
[7] = Hepatocyte intrinsic clearance, human; type: in vitro ADME; conditions: hepatocytes
[8] = Hepatocyte intrinsic clearance, rat; type: in vitro ADME; conditions: hepatocytes
[9] = tested on: pFGFR2 (Y653/654); assay: Tumor PD; type: in vivo, mouse; conditions: SNU-16 xenograft, BALB/c nude mice, oral 5 and 10 mg/kg twice daily groups, 2 h postdose
[10] = Hepatocyte intrinsic clearance, cynomolgus monkey; type: in vitro ADME; conditions: hepatocytes
[11] = PK study IV/PO, dog; type: in vivo
[12] = ELogD; type: physicochemical; conditions: pH 7.4
[13] = CACO2 permeability; conditions: human, Caco-2
[14] = Thermodynamic solubility FaSSIF/SGF; type: physicochemical; conditions: thermodynamic from solid
[15] = tested on: MKNK2; conditions: test concentration 500 nmol/L; cited from earlier work
[16] = tested on: FGFR2 fusion-positive cholangiocarcinoma; conditions: patients, across dose levels; cited from earlier work
[17] = Plasma protein binding, dog; type: in vitro ADME; conditions: beagle, pooled plasma
[18] = PK study IV/PO, rat; type: in vivo
[19] = Plasma protein binding, cynomolgus monkey; type: in vitro ADME; conditions: pooled plasma
[20] = PK study IV/PO, mouse; type: in vivo
[21] = Hepatocyte intrinsic clearance, dog; type: in vitro ADME; conditions: hepatocytes
[22] = Plasma protein binding, rat; type: in vitro ADME; conditions: Sprague-Dawley, pooled plasma
[23] = tested on: p-ERK (Tyr202/204) in SNU-16 cells; assay: SNU-16 cellular PD assay, p-ERK HTRF; type: cell-based; conditions: Homo sapiens, SNU-16, 2 h, read-out: SNU16 PD IC50

- fraction unbound at 18 h, 5 μM [1]: 0.0082
- fraction unbound at 18 h, 5 μM [2]: 0.0014
- stability in plasma under PPB assay conditions [3]: stable
- hepatocyte CLint [4]: 29 µL/min/1e6 cells
- IV CLu cynomolgus monkey ([6]; IV, unbound): 1,100 mL/min/kg
- Vd ([6]; plasma, iv): 0.26 L/kg
- clearance ([6]; plasma, iv): 2.2 mL/min/kg
- half-life ([6]; plasma, iv): 84 min
- bioavailability ([6]; plasma, po): 47%
- hepatocyte CLint [7]: < 1 µL/min/1e6 cells
- hepatocyte CLint [8]: 30 µL/min/1e6 cells
- hepatocyte CLint [10]: 6.5 µL/min/1e6 cells
- IV CLu dog ([11]; IV, unbound): 1,200 mL/min/kg
- Vd ([11]; beagle, plasma, iv): 1.3 L/kg
- clearance ([11]; beagle, plasma, iv): 28 mL/min/kg
- half-life ([11]; beagle, plasma, iv): 33 min
- bioavailability ([11]; beagle, plasma, po): 53%
- ELogD@7.4 [12]: 4.3/510
- Papp A→B [13]: 5.3 ×10⁻⁶ cm/s
- Papp B→A [13]: 6.8 ×10⁻⁶ cm/s
- solubility ([14]; FaSSIF): 49.3 µM (≈ 25.1 µg/mL)
- solubility ([14]; SGF, simulated gastric fluid): 540 µM (≈ 275 µg/mL)
- fraction unbound at 18 h, 5 μM [17]: 0.023
- IV CLu rat ([18]; IV, unbound): 3,813 mL/min/kg
- Vd ([18]; Sprague-Dawley, in vivo, iv): 0.98 L/kg
- half-life ([18]; Sprague-Dawley, in vivo, iv): 11.4 min
- bioavailability ([18]; Sprague-Dawley, in vivo, po): 18%
- fraction unbound at 18 h, 5 μM [19]: 0.002
- Vd ([20]; BALB/c nude, plasma, iv): 0.42 L/kg
- clearance ([20]; BALB/c nude, plasma, iv): 4.4 mL/min/kg
- half-life ([20]; BALB/c nude, plasma, iv): 66 min
- bioavailability ([20]; BALB/c nude, plasma, po): 58%
- IV CLu mouse ([20]; IV, unbound): 538 mL/min/kg
- hepatocyte CLint [21]: 19 µL/min/1e6 cells
- fraction unbound at 18 h, 5 μM [22]: 0.016
- IC50 [23]: 3 nM
Compound: C=C(C)C(=O)Nc1ccc(-c2c(-c3ccc(Oc4nccc(C)n4)c(F)c3)c3c(N)ncnc3n2C)cc1 [Lirafugratinib]
- inhibition of MEK5 in kinome panel [5]: 92.4%
- modulation of phosphorylated FGFR2 (pFGFR2) in tumor [9]: complete suppression
- inhibition of MKNK2 in kinome panel [15]: 89%
- adverse effects occurring with treatment [16]: minimal hyperphosphatemia and diarrhea
